The NIST ThermoML archive (doi:10.1021/acs.jced.5b00251)
Numbers after ± are expanded uncertainties.

Test: refractive index (other wavelength) (dimensionless); xn = mol fraction of the nth substance listed
Details: 101 kPa, Liquid, Standard Abbe refractometry

With CC(C)Cc1ccccc1 [(2-methylpropyl)benzene] + CCCCCCCCCCCC the refractive index (308.15 K, Wavelength=436.1 nm, x1 = 0.1014) was 1.43035 ± 0.00073, the refractive index (308.15 K, Wavelength=436.1 nm, x1 = 0.2024) was 1.43663 ± 0.00074 and the refractive index (308.15 K, Wavelength=436.1 nm, x1 = 0.3032) was 1.44293 ± 0.00076. The refractive index (308.15 K, Wavelength=436.1 nm, x1 = 0.4036) was 1.44977 ± 0.00075, the refractive index (308.15 K, Wavelength=436.1 nm, x1 = 0.5038) was 1.45671 ± 0.00075 and the refractive index (308.15 K, Wavelength=436.1 nm, x1 = 0.6036) was 1.46416 ± 0.00076. For the same molecule, the refractive index (308.15 K, Wavelength=436.1 nm, x1 = 0.7032) was 1.47181 ± 0.00076, the refractive index (308.15 K, Wavelength=436.1 nm, x1 = 0.8024) was 1.47955 ± 0.00077 and the refractive index (308.15 K, Wavelength=436.1 nm, x1 = 0.9014) was 1.48775 ± 0.00078. The refractive index (308.15 K, Wavelength=513.9 nm, x1 = 0.1014) was 1.42401 ± 0.00072, the refractive index (308.15 K, Wavelength=513.9 nm, x1 = 0.2024) was 1.42966 ± 0.00073 and the refractive index (308.15 K, Wavelength=513.9 nm, x1 = 0.3032) was 1.43562 ± 0.00075. It also gave a refractive index (308.15 K, Wavelength=513.9 nm, x1 = 0.4036) of 1.44199 ± 0.00074, a refractive index (308.15 K, Wavelength=513.9 nm, x1 = 0.5038) of 1.44841 ± 0.00074 and a refractive index (308.15 K, Wavelength=513.9 nm, x1 = 0.6036) of 1.45531 ± 0.00075. The refractive index (308.15 K, Wavelength=513.9 nm, x1 = 0.7032) was 1.46239 ± 0.00075, the refractive index (308.15 K, Wavelength=513.9 nm, x1 = 0.8024) was 1.46958 ± 0.00076 and the refractive index (308.15 K, Wavelength=513.9 nm, x1 = 0.9014) was 1.47731 ± 0.00075. The refractive index (308.15 K, Wavelength=589.3 nm, x1 = 0.1014) was 1.42043 ± 0.00072, the refractive index (308.15 K, Wavelength=589.3 nm, x1 = 0.2024) was 1.42581 ± 0.00073 and the refractive index (308.15 K, Wavelength=589.3 nm, x1 = 0.3032) was 1.43152 ± 0.00074. For the same molecule, the refractive index (308.15 K, Wavelength=589.3 nm, x1 = 0.4036) was 1.43762 ± 0.00073, the refractive index (308.15 K, Wavelength=589.3 nm, x1 = 0.5038) was 1.44375 ± 0.00073 and the refractive index (308.15 K, Wavelength=589.3 nm, x1 = 0.6036) was 1.45034 ± 0.00074. The refractive index (308.15 K, Wavelength=589.3 nm, x1 = 0.7032) was 1.45708 ± 0.00074, the refractive index (308.15 K, Wavelength=589.3 nm, x1 = 0.8024) was 1.46398 ± 0.00075 and the refractive index (308.15 K, Wavelength=589.3 nm, x1 = 0.9014) was 1.47126 ± 0.00075. It also gave a refractive index (308.15 K, Wavelength=633.2 nm, x1 = 0.1014) of 1.41894 ± 0.00072, a refractive index (308.15 K, Wavelength=633.2 nm, x1 = 0.2024) of 1.42433 ± 0.00072 and a refractive index (308.15 K, Wavelength=633.2 nm, x1 = 0.3032) of 1.42979 ± 0.00074. The refractive index (308.15 K, Wavelength=633.2 nm, x1 = 0.4036) was 1.4358 ± 0.00073, the refractive index (308.15 K, Wavelength=633.2 nm, x1 = 0.5038) was 1.44178 ± 0.00073 and the refractive index (308.15 K, Wavelength=633.2 nm, x1 = 0.6036) was 1.44827 ± 0.00074. For the same molecule, the refractive index (308.15 K, Wavelength=633.2 nm, x1 = 0.7032) was 1.45488 ± 0.00074, the refractive index (308.15 K, Wavelength=633.2 nm, x1 = 0.8024) was 1.46165 ± 0.00074 and the refractive index (308.15 K, Wavelength=633.2 nm, x1 = 0.9014) was 1.46871 ± 0.00075. The refractive index (308.15 K, Wavelength=657.2 nm, x1 = 0.1014) was 1.41824 ± 0.00072, the refractive index (308.15 K, Wavelength=657.2 nm, x1 = 0.2024) was 1.42395 ± 0.00074 and the refractive index (308.15 K, Wavelength=657.2 nm, x1 = 0.3032) was 1.42984 ± 0.00072. It also gave a refractive index (308.15 K, Wavelength=657.2 nm, x1 = 0.4036) of 1.43554 ± 0.00075, a refractive index (308.15 K, Wavelength=657.2 nm, x1 = 0.5038) of 1.44115 ± 0.00074 and a refractive index (308.15 K, Wavelength=657.2 nm, x1 = 0.6036) of 1.44715 ± 0.00074. The refractive index (308.15 K, Wavelength=657.2 nm, x1 = 0.7032) was 1.45387 ± 0.00073, the refractive index (308.15 K, Wavelength=657.2 nm, x1 = 0.8024) was 1.46065 ± 0.00074 and the refractive index (308.15 K, Wavelength=657.2 nm, x1 = 0.9014) was 1.46758 ± 0.00075. The refractive index (313.15 K, Wavelength=436.1 nm, x1 = 0.1014) was 1.42808 ± 0.00073, the refractive index (313.15 K, Wavelength=436.1 nm, x1 = 0.2024) was 1.43404 ± 0.00073 and the refractive index (313.15 K, Wavelength=436.1 nm, x1 = 0.3032) was 1.44059 ± 0.00076. The refractive index (313.15 K, Wavelength=436.1 nm, x1 = 0.4036) was 1.4473 ± 0.00075, the refractive index (313.15 K, Wavelength=436.1 nm, x1 = 0.5038) was 1.45448 ± 0.00076 and the refractive index (313.15 K, Wavelength=436.1 nm, x1 = 0.6036) was 1.46172 ± 0.00076. The refractive index (313.15 K, Wavelength=436.1 nm, x1 = 0.7032) was 1.46924 ± 0.00077, the refractive index (313.15 K, Wavelength=436.1 nm, x1 = 0.8024) was 1.47706 ± 0.00077 and the refractive index (313.15 K, Wavelength=436.1 nm, x1 = 0.9014) was 1.48511 ± 0.00078. For the same molecule, the refractive index (313.15 K, Wavelength=513.9 nm, x1 = 0.1014) was 1.42179 ± 0.00072, the refractive index (313.15 K, Wavelength=513.9 nm, x1 = 0.2024) was 1.42725 ± 0.00073 and the refractive index (313.15 K, Wavelength=513.9 nm, x1 = 0.3032) was 1.43332 ± 0.00074. It also gave a refractive index (313.15 K, Wavelength=513.9 nm, x1 = 0.4036) of 1.43955 ± 0.00074, a refractive index (313.15 K, Wavelength=513.9 nm, x1 = 0.5038) of 1.44611 ± 0.00073 and a refractive index (313.15 K, Wavelength=513.9 nm, x1 = 0.6036) of 1.45293 ± 0.00075. It also gave a refractive index (313.15 K, Wavelength=513.9 nm, x1 = 0.7032) of 1.4599 ± 0.00076, a refractive index (313.15 K, Wavelength=513.9 nm, x1 = 0.8024) of 1.46712 ± 0.00076 and a refractive index (313.15 K, Wavelength=513.9 nm, x1 = 0.9014) of 1.47502 ± 0.00075. For the same molecule, the refractive index (313.15 K, Wavelength=589.3 nm, x1 = 0.1014) was 1.41826 ± 0.00072, the refractive index (313.15 K, Wavelength=589.3 nm, x1 = 0.2024) was 1.42345 ± 0.00073 and the refractive index (313.15 K, Wavelength=589.3 nm, x1 = 0.3032) was 1.42938 ± 0.00075. It also gave a refractive index (313.15 K, Wavelength=589.3 nm, x1 = 0.4036) of 1.4352 ± 0.00073.
